# Test results from publication PMC6458995, “MAP4K4 Inhibition Promotes Survival of Human Stem Cell-Derived Cardiomyocytes and Reduces Infarct Size In Vivo” (Cell Stem Cell, 2019).
# Assays:
# NUAK = test: HTRF Transcreener ADP kinase assay; format: biochemical, human
# VEGFR = test: HTRF Transcreener ADP kinase assay; format: biochemical, human
# hCaV1.2 = target: T1, hCaV1.2 (Homo sapiens, UniProt Q13936); test: Ion channel safety screening (Patchliner whole-cell patch clamp); format: cell-based
# T1 construct: HEK293 cells stably expressing full length hCaV1.2; host or cells: HEK293
# T1 sequence (Q13936 whole entry): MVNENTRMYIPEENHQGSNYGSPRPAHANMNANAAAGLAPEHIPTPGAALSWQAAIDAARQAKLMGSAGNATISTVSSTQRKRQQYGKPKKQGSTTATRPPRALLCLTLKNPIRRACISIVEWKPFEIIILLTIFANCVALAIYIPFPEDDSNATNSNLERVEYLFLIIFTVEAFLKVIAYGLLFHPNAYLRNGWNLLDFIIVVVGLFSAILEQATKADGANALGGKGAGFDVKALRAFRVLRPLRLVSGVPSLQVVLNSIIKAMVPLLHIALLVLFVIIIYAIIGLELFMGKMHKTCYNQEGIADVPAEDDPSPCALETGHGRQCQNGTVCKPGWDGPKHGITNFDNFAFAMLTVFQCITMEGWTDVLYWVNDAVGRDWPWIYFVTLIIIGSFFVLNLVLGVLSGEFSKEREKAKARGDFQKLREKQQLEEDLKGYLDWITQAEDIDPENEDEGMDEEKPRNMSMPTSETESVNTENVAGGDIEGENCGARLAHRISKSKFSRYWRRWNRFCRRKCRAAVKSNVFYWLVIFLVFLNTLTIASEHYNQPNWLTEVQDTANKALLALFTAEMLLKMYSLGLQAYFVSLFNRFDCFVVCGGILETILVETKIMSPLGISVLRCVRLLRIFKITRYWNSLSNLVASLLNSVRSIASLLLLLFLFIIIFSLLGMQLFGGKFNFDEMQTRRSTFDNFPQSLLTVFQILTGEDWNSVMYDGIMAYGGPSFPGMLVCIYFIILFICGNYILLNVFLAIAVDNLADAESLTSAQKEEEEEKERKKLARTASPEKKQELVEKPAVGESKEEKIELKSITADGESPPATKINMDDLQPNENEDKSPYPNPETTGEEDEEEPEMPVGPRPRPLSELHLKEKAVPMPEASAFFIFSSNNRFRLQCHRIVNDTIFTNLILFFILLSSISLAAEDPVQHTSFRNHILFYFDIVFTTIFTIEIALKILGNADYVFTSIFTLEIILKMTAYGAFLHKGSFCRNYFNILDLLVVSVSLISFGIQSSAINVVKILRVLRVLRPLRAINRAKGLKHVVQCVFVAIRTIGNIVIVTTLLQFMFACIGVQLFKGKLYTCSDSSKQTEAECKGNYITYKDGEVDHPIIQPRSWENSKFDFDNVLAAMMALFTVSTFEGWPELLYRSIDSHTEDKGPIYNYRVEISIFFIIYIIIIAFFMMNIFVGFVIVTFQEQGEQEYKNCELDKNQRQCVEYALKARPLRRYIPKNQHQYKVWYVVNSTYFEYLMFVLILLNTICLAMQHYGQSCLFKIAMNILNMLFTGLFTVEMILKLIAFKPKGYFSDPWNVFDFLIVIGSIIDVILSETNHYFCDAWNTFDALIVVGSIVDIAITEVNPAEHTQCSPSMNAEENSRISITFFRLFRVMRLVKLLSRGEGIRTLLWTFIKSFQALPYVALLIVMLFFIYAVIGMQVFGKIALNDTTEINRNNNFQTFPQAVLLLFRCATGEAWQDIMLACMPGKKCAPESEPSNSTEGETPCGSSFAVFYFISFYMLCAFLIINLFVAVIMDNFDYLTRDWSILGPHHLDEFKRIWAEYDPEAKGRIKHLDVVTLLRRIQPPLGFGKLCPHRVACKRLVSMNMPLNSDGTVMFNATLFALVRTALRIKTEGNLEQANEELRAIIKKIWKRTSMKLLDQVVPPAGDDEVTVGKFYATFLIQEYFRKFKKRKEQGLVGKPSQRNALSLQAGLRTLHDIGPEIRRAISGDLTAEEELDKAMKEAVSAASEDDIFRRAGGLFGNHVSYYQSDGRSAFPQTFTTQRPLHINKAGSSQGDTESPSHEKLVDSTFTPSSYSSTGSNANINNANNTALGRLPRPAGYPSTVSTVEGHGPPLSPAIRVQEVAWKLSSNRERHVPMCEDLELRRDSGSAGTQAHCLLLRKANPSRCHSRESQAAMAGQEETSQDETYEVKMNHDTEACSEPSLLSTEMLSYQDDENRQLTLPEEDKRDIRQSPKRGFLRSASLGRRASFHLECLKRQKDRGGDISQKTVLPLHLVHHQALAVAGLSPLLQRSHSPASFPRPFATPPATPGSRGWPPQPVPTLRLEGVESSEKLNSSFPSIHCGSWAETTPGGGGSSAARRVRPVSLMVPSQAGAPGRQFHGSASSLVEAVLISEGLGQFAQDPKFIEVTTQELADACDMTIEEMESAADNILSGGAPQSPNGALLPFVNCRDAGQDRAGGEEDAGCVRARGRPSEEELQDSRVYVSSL
# T1 sequence (Q08289 whole entry partner): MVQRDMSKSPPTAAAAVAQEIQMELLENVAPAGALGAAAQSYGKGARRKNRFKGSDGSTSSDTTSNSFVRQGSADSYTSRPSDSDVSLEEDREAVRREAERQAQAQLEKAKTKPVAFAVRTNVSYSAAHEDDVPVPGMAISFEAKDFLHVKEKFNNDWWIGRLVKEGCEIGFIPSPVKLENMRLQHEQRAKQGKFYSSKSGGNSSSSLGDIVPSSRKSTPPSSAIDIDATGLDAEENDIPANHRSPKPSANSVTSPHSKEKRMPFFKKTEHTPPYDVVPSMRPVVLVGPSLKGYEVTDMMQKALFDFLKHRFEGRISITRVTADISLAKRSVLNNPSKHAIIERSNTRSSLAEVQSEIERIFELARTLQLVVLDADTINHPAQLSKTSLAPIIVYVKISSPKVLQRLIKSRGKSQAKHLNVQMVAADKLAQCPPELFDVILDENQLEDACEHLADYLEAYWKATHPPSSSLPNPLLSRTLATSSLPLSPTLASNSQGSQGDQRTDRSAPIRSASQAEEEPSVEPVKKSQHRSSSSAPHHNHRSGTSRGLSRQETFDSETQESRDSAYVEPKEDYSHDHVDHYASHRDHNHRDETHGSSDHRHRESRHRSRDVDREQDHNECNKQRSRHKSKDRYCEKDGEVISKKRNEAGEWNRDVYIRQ
# T1 sequence (P54289 25-956 partner limits assumed): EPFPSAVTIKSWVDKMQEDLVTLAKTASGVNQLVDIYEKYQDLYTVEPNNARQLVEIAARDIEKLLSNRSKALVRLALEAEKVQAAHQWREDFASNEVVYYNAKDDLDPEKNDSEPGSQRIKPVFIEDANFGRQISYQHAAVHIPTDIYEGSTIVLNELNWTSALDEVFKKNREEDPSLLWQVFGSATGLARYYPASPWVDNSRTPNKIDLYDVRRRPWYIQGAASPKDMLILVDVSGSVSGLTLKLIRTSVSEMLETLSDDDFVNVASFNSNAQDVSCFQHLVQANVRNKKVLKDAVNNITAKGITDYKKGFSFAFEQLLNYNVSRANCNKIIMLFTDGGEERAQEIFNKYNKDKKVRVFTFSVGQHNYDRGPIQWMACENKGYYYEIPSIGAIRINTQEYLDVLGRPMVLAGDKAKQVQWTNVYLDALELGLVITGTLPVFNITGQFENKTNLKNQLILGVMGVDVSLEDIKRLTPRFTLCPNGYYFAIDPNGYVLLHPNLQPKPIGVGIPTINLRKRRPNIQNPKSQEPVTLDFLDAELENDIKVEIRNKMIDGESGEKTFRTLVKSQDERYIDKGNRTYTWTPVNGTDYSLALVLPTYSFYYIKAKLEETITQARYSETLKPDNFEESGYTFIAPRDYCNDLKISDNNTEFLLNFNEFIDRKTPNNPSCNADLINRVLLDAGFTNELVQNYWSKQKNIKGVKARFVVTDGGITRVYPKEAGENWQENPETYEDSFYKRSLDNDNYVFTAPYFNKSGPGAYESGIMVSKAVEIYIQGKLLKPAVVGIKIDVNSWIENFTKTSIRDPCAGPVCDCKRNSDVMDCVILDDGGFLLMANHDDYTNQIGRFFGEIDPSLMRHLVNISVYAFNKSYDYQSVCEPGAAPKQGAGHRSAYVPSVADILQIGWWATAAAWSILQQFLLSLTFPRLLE
# T1 sequence (P54289 957-1103 partner limits assumed): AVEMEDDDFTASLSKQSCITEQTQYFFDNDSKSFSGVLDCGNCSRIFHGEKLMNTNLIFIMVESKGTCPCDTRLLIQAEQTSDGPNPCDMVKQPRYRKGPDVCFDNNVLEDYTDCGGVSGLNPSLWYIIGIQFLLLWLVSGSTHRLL
# Experimental: (§1) Electrophysiological recordings (Apconix) were performed using a Chinese Hamster Ovary cell line stably expressing full length hERG or hNaV1.5, or HEK293 cells stably expressing full length hCaV1.2. Single cell currents were measured in whole-cell configuration at 21-23°C using a Patchliner (Nanion Technologies). The internal solution for hERG contained (mM): 120 KF, 20 KCl, 10EGTA, 10 HEPES (pH 7.3). The internal solution for hNaV1.5 and CaV1.2 contained (mM): 140 CsF, 1 EGTA, 10 NaCl, 10 HEPES (pH 7.3). […] Late Na^+ currents were activated with 50 μM veratridine. Cells were clamped at a holding potential of −80 mV before a depolarising step appropriate for each channel. Currents measured from the step were referenced to the holding current. Compounds were then incubated for 2-3 min prior to a second measurement using an identical pulse train.
# hERG = target: T2, hERG (Homo sapiens, UniProt Q12809); test: as above; format: cell-based
# T2 construct: stably expressing full length hERG; host or cells: Chinese Hamster Ovary cell line
# T2 sequence (Q12809 whole entry): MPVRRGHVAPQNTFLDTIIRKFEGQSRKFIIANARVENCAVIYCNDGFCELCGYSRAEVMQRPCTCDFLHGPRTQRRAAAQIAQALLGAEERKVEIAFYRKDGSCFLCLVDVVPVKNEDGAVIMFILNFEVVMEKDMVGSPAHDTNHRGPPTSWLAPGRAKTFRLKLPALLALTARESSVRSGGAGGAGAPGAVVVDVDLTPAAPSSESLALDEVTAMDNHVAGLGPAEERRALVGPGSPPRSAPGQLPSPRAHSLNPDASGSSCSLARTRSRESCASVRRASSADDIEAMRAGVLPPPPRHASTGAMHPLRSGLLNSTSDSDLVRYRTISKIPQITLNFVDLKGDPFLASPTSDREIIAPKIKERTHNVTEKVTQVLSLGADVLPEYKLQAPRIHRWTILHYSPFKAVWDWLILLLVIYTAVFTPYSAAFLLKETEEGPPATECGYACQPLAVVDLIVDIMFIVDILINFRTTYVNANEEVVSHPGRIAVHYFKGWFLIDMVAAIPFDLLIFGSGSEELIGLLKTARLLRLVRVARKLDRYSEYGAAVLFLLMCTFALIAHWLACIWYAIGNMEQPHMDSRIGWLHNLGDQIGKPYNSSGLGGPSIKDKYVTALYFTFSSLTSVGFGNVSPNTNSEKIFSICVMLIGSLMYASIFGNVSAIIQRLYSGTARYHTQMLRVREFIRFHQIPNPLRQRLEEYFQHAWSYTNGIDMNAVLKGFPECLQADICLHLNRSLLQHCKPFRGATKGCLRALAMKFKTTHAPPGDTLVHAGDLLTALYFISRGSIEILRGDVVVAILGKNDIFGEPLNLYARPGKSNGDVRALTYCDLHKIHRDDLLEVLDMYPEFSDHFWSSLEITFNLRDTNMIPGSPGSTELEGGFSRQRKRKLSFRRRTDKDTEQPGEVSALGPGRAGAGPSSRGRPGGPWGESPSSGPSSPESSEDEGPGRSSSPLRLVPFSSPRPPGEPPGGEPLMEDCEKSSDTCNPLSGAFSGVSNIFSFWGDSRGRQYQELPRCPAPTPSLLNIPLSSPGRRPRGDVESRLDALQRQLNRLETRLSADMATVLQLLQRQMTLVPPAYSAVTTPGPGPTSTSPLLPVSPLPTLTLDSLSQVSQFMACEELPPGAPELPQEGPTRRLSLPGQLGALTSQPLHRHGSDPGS
# Experimental: as §1
# hNaV1.5 = target: T3, hNaV1.5 (Homo sapiens, UniProt Q14524); test: as above; format: cell-based
# T3 construct: stably expressing full length hERG or hNaV1.5; host or cells: Chinese Hamster Ovary cell line
# Experimental: as §1
# [1] = system: S. typhimurium TA98 and TA100; test: Ames genotoxicity reverse mutation assay
# Experimental: Approximately 10^7 bacteria were exposed in triplicate to the test agent (six concentrations, 7.8-250 μg ml^-1), a vehicle control (vehicle) and a positive control for 90 min in low-histidine medium (sufficient for about 2 doublings.) The strains used were S. typhimurium TA98 (hisD3052, rfa, uvrB / pKM101; detects frameshift mutations) and TA100: hisG45, rfa, uvrB / pKM101; detects base-pair substitutions). The cultures were then diluted into indicator medium lacking histidine, dispensed into 384-well plates, and incubated for 48 hr at 37°C. The test was performed in the absence and presence of S9 metabolic activation, to identify pro-mutagens as well as directly acting mutagens. Only cells that underwent reversion grow, resulting in a color change. A two-fold increase over the vehicle control in the number of colonies indicates a positive response.
# [2] = Glutathione (GSH)-trapping; format: in vitro ADME
# cardiac MAP4K4 [3] = target: T4, cardiac MAP4K4 (Mus musculus, UniProt P97820); test: Target engagement ex vivo (block to desthiobiotin-ATP binding); details: adult mouse cardiac lysates; versus F1386-0303
# Experimental: Lysates were prepared and assayed using a desthiobiotin-ATP probe Kinase Enrichment Kit (Thermo Fisher Scientific) ([Patricelli et al., 2011]). In brief, tissue samples (100-120 mg) were cut into small pieces and resuspended in 1 mL of Lysis Buffer containing protease and phosphatase inhibitors. After homogenization (30 s on ice), the lysates were centrifuged (16,000 x g at 4°C for 10 min) and a buffer-exchange to Reaction Buffer was performed, to remove endogenous ATPs. Protein concentrations were measured by the BCA assay (Thermo Fisher Scientific). Compounds were added to 500 μL of lysate at 2 mg/ml in presence of 20 mM MgCl2 and incubated for 10 min at room temperature. The ActivX desthiobiotin-ATP probe (5 μM) was added, and samples were incubated for 10 min. Reactions were stopped by adding 500 μL of 8 M Urea/Lysis Buffer, and labeled kinases were captured by incubating samples with 60 μL of 50% Streptavidin-Agarose beads. Samples were incubated with constant inversion for 2 hr at room temperature. Samples were centrifuged (1000 x g for 1 min) and washed three times with 500 μL of 4 M Urea/Lysis Buffer. Captured kinases were eluted by boiling in 30 μL of Laemmli sample buffer for 15 min. Samples were analyzed by western blotting for MAP4K4 and for Src or p38 and were normalized to the capture of the untargeted control kinase.
# cardiac MAP4K4 [4] = target: T4, cardiac MAP4K4; test: Target engagement in vivo (desthiobiotin-ATP probe on cardiac lysates after oral dosing); details: dose-response and time course
# cardiomyocyte apoptosis = test: Cardiomyocyte apoptosis after myocardial infarction (TUNEL staining); format: in vivo, mice; details: post-injury study
# Experimental: Mice were treated subcutaneously with 0.024 mg buprenorphine (average, 1.1 mg kg^-1; […] Animal Health), intubated, and ventilated using a tidal volume of 250 μL and respiratory rate of 150 breaths min^-1 (Hugo-Sachs MiniVent type 845; Harvard Apparatus). After a left thoracotomy in the fourth intercostal space, the pericardium was removed. A 6-0 polypropylene suture was used to […] anterior descending coronary artery (LAD) and tied against a short section of PE-50 polyethylene tubing for 45 min; blood flow was re-established by removing the tubing, releasing the ligature. Ischemia and reperfusion were substantiated by reversible distal blanching and ST segment elevation. Mice were allowed to recover in a heated chamber for 20 min, then moved to a normal holding cage with supplemental heat if necessary. […] Nuclei were stained with 2.5 μg ml^-1 diamidinophenolindole (DAPI). Alternatively, fixed frozen sections were used. Cleaved DNA (apoptotic cells) was visualized using TUNEL ApopTag Kits (Millipore). Cardiomyocytes were identified using MF20 antibody to sarcomeric myosin heavy chains (MyHC; R&D Systems) (fluorescein-conjugated: Figure S3C; unconjugated, plus Alexa Fluor-555 anti-mouse IgG: Figure […]; conjugated and unconjugated mouse IgG2b were the respective controls). Sections were counterstained with DAPI and treated with Prolong Gold Antifade Mountant (Life Technologies). […]
smiles,measurement,setting,value
"COCCOc1ccc(-c2cn(-c3ccccc3)c3nc[nH]c(=O)c23)cc1 [DMX-5804, 5-[4-(2-methoxy-ethoxy)-phenyl]-7-phenyl-3,7-dihydro-pyrrolo[2,3-d]pyrimidin-4-one]",Fold Selectivity,NUAK; NUAK versus MAP4K4,47
same,DMX-5804 vs F1386-0303,"NUAK; ratio of fold selectivity, NUAK",2.35
same,Fold Selectivity,VEGFR; VEGFR versus MAP4K4,675
same,pIC50,"VEGFR; VEGFR, HTRF Transcreener ADP assay",5.72
same,DMX-5804 vs F1386-0303,"VEGFR; ratio of fold selectivity, VEGFR",12.27
same,off-target effect,hCaV1.2; cloned human hCaV1.2,no off-target effect
same,IC50,"hCaV1.2; hCaV1.2, HEK cells, 4-parameter logistic fit",> 30 µM
same,off-target effect,hERG; cloned human hERG,no off-target effect
same,IC50,"hERG; hERG, CHO cells, 4-parameter logistic fit",> 30 µM
same,off-target effect,hNaV1.5; cloned human hNaV1.5,no off-target effect
same,IC50,"hNaV1.5; hNaV1.5, CHO cells, 4-parameter logistic fit",> 30 µM
same,Ames test of mutagenic potential,[1],no off-target effect
same,glutathione (GSH)-trapping,[2],no off-target effect
same,greater affinity over the earlier compound (target engagement ex vivo),cardiac MAP4K4 [3],10 ×
same,inhibition of ATP binding to cardiac MAP4K4 in vivo,cardiac MAP4K4 [4],substantiated
same,suppression of cardiomyocyte apoptosis in adjacent jeopardized myocardium,cardiomyocyte apoptosis,52%
same,suppression of cardiomyocyte apoptosis within the infarct,cardiomyocyte apoptosis,39%
